Experimental data reported in patent US8709392B2, “Cosmetic/dermatological compositions comprising naphthoic acid compounds and polyurethane polymers” (Galderma Research & Development, priority 2005, dated 2014).

Key:
[1] = system: skin of the back of RHINO FVB/N RJ-hr^rh mice (Rhino); assay: Study of the comedolytic activity on Rhino mice; assay type: in vivo, mouse; conditions: for Change in weight of the Rhino mice (%) D19-D1, Mean: 50 μl topical daily for 18 days; for increase in transepidermal water loss (TWL), AUC: Rhino mice, after 18 days of topical treatment
Procedure: The present study is aimed at evaluating the comedolytic activity of the reference gel containing 0.1% adapalene and of two 0.1% adapalene formulations in gel form with a polyurethane polymer at different concentrations, and also their placebos, on the skin of the back of RHINO FVB/N RJ-hr^rh mice (Rhino) after repeated topical applications for 18 days.
The daily topical application (50 μl) of the test products is performed on the skin of the back of Rhino mice divided into seven groups (approximately 7-week-old mice) at a rate of one application per day for 18 days. The test products are:
The tolerance evaluation is made by clinical observation of the dorsal epidermis with the following observation parameters: oedema, erythema and squamae 3 times a week for 19 days.
The comedolytic activity is evaluated by measuring the transepidermal water loss (TWL) on days D4, D11 and D19, by measuring the thickness of the epidermis, by counting the number of comedones/cm and by weighing the animals on days D1, D4, D11 and D19.
The TWL quantifies the impairment in the skin barrier by measuring the gradient of water vapor that is established in a layer 10 mm thick above the surface of the skin.

[2] = system: skin of the ear of the BALB/c mouse; assay: Tolerance study in BALB/c mice (ear thickness after repeated topical applications); assay type: in vivo
Procedure: The present study is for comparing the irritant power of a reference gel containing 0.1% adapalene with that of three 0.1% adapalene formulations in gel form containing a polyurethane polymer at various concentrations, and also placebos thereof, on the skin of the ear of the BALB/c mouse after repeated topical applications for 6 days.
The daily topical application (20 μl) of the test products is performed on the inner face of the ear of BALB/c mice divided into ten groups (female mice about 8 weeks old) at a rate of one application per day for 6 days. The test products are:
The evaluation is performed by measuring the thickness of the ear by means of the Oditest and by clinical observation of the animals from the 2nd to the 19th day.

Structure (SMILES)	Change in weight of the Rhino mice (%) D19-D1, Mean [1] [%]	increase in transepidermal water loss (TWL), AUC [1] [%]	irritant power ([2]; BALB/c mouse ear thickness kinetics D2-D19)	Increase in AUC versus placebo (%) ([2]; ear thickness AUC D2-D19, BALB/c mouse, relative to own placebo)
CC1(C)CCC(C)(C)c2cc(-c3cc4ccc(C(=O)O)cc4s3)ccc21 [2-(5,5,8,8-tetramethyl-5,6,7,8-tetrahydronaphthalen-2-yl)benzo[b]thiophene-6-carboxylic acid]	10.4	332		
COc1ccc(-c2ccc3cc(C(=O)O)ccc3c2)cc1C12CC3CC(CC(C3)C1)C2 [acetone+0.1% (m/m) adapalene, 6-[3-(1-adamantyl)-4-methoxyphenyl]-2-naphthoic acid]	9.2	299	also irritant	30
